From the supplement of paper PMC10627819 come the findings set out here.

Test in all cases: Bliss interaction score (quartile over a dose matrix) (fitness difference); higher = more antagonism (negative = synergy)
One test deals with B. subtilis 168. In outline: (§1)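 The Bliss score subtracts expected fitness, the product of the single-drug fitness values, from observed fitness. Fitness is plate-normalised OD595 at entry into stationary phase, relative to the robust no-drug mean and capped at 1, with single-drug fitness inferred from combinations. Summaries are quartiles over technical, biological and donor/recipient replicates.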

In the next test the test system is S. aureus DSM 20231. Put shortly: as §1
A further test has as its system S. aureus Newman. Put shortly: as §1
Another test deals with S. pneumoniae D39V. Put shortly:
as §1
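Further: first quartile when negative (synergy) and third quartile when positive (antagonism).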

Consider `CC(=O)Oc1ccccc1C(=O)O` [Acetylsalicylicacid] + C[C@@H](O)[C@H]1C(=O)N2C(C(=O)O)=C(SCCNC=N)C[C@H]12 [Imipenem], for which the Bliss interaction score in the test on B. subtilis 168 is -0.34; with S. aureus DSM 20231, 0.0498; in the test with S. aureus Newman, 0.0337; with S. pneumoniae D39V, 0.0958.
The corresponding values for `CO/N=C(\C(=O)N[C@@H]1C(=O)N2C(C(=O)O)=C(COC(N)=O)CS[C@H]12)c1ccco1` [Cefuroxime] + CC(=O)O[C@H]1C[C@@]2(C)[C@@H](C[C@@H](O)[C@H]3[C@@]4(C)CC[C@@H](O)[C@@H](C)[C@@H]4CC[C@@]32C)/C1=C(\CCC=C(C)C)C(=O)O [Fusidic acid] are 0.137, -0.281, 0.104 and 0.0348.
The corresponding values for `CN(C)[C@@H]1C(O)=C(C(N)=O)C(=O)[C@@]2(O)C(O)=C3C(=O)c4c(O)ccc(Cl)c4[C@@](C)(O)[C@H]3C[C@@H]12` [Clortetracycline] + COc1c(N2C[C@@H]3CCCN[C@@H]3C2)c(F)cc2c(=O)c(C(=O)O)cn(C3CC3)c12 [Moxifloxacin] are -0.0182, 0.119, 0.101 and 0.0374.
The corresponding values for `N#CC(C#N)=NNc1cccc(Cl)c1` [CCCP] + CO[C@H]1/C=C/O[C@@]2(C)Oc3c(C)c(O)c4c(O)c(c(/C=N/N5CCN(C)CC5)c(O)c4c3C2=O)NC(=O)/C(C)=C\C=C\[C@H](C)[C@H](O)[C@@H](C)[C@@H](O)[C@@H](C)[C@H](OC(C)=O)[C@@H]1C [Rifampicin] are -0.0783, 0.0329, 0.0395 and 0.0879.
Consider `CC1(C)S[C@@H]2[C@H](NC(=O)Cc3ccccc3)C(=O)N2[C@H]1C(=O)O` [PenicillinG] + Cn1nnc(-c2ccc(-c3ccc(N4C[C@H](CO)OC4=O)cc3F)cn2)n1 [Tedizolid], for which the Bliss interaction score in the test with B. subtilis 168 was 0.0625; with S. aureus DSM 20231, 0.057; with S. aureus Newman, -0.0888; with S. pneumoniae D39V, 0.106.
The corresponding values for `CN(C)[C@@H]1C(O)=C(C(N)=O)C(=O)[C@@]2(O)C(O)=C3C(=O)c4c(O)ccc(Cl)c4[C@@](C)(O)[C@H]3C[C@@H]12` [Clortetracycline] + CCN(CC)CCOC(=O)c1ccc(N)cc1 [Procaine] are 0.0759, -0.0714, 0.0501 and -0.0498.
As to `CC(=O)Oc1ccccc1C(=O)O` [Acetylsalicylicacid] + CN[C@H](CC(C)C)C(=O)N[C@H]1C(=O)N[C@@H](CC(N)=O)C(=O)N[C@H]2C(=O)N[C@H]3C(=O)N[C@H](C(=O)N[C@H](C(=O)O)c4cc(O)cc(O)c4-c4cc3ccc4O)[C@H](O)c3ccc(c(Cl)c3)Oc3cc2cc(c3O[C@@H]2O[C@H](CO)[C@@H](O)[C@H](O)[C@H]2O[C@H]2C[C@](C)(N)[C@H](O)[C@H](C)O2)Oc2ccc(cc2Cl)[C@H]1O [Vancomycin], the Bliss interaction score in the test with B. subtilis 168 was -0.0629; in the test with S. aureus DSM 20231, -0.0542; with S. aureus Newman, 0.0599; with S. pneumoniae D39V, 0.114.
In the case of `CN(C)[C@@H]1C(O)=C(C(N)=O)C(=O)[C@@]2(O)C(O)=C3C(=O)c4c(O)ccc(Cl)c4[C@@](C)(O)[C@H]3C[C@@H]12` [Clortetracycline] + C/C(=C\C(=O)OCCCCCCCCC(=O)O)C[C@@H]1OC[C@H](C[C@@H]2O[C@H]2[C@@H](C)[C@H](C)O)[C@@H](O)[C@H]1O [Pseudomonic acid], the Bliss interaction score was -0.0689 in the test with B. subtilis 168, 0.0276 with S. aureus DSM 20231, 0.0209 in the test on S. aureus Newman and 0.0729 with S. pneumoniae D39V.
The corresponding values for `CC(=O)Oc1ccccc1C(=O)O` [Acetylsalicylicacid] + CO[C@H]1/C=C/O[C@@]2(C)Oc3c(C)c(O)c4c(O)c(c(/C=N/N5CCN(C)CC5)c(O)c4c3C2=O)NC(=O)/C(C)=C\C=C\[C@H](C)[C@H](O)[C@@H](C)[C@@H](O)[C@@H](C)[C@H](OC(C)=O)[C@@H]1C [Rifampicin] are 0.131, 0.0617, 0.036 and 0.0476.
Regarding `CC1(C)S[C@@H]2[C@H](NC(=O)Cc3ccccc3)C(=O)N2[C@H]1C(=O)O` [PenicillinG] + CC[C@H]1OC(=O)[C@H](C)C(=O)[C@H](C)[C@@H](O[C@@H]2O[C@H](C)C[C@H](N(C)C)[C@H]2O)[C@](C)(OC)C[C@@H](C)C(=O)[C@H](C)[C@H]2N(CCCCn3cnc(-c4cccnc4)c3)C(=O)O[C@]12C [Telithromycin], the Bliss interaction score was 0.0511 in the test with B. subtilis 168, 0.0277 with S. aureus DSM 20231, -0.0465 in the test on S. aureus Newman and 0.0452 with S. pneumoniae D39V.
The corresponding values for `N#CC(C#N)=NNc1cccc(Cl)c1` [CCCP] + CC1=C(C(=O)O)N2C(=O)[C@@H](NC(=O)[C@H](N)c3ccccc3)[C@H]2SC1 [Cephalexin] are 0.0431, 0.0708, -0.0498 and -0.0759.
Taken in the same sequence, the figures for `CO/N=C(\C(=O)N[C@@H]1C(=O)N2C(C(=O)O)=C(COC(N)=O)CS[C@H]12)c1ccco1` [Cefuroxime] + CC1(C)S[C@@H]2[C@H](NC(=O)Cc3ccccc3)C(=O)N2[C@H]1C(=O)O [PenicillinG] were -0.0758, -0.154, 0.102 and -0.0476.
The corresponding values for `C[C@H]1c2cccc(O)c2C(=O)C2=C(O)[C@]3(O)C(=O)C(C(N)=O)=C(O)[C@@H](N(C)C)[C@@H]3[C@@H](O)[C@@H]21` [Doxycycline] + CO[C@@]12[C@H](COC(N)=O)C3=C(C(=O)C(C)=C(N)C3=O)N1C[C@@H]1N[C@@H]12 [MitomycinC] are 0.0704, -0.0478, 0.0515 and -0.0943.
With `CN(C)[C@@H]1C(O)=C(C(N)=O)C(=O)[C@@]2(O)C(O)=C3C(=O)c4c(O)ccc(Cl)c4[C@@](C)(O)[C@H]3C[C@@H]12` [Clortetracycline] + CC(=O)O[C@H]1C[C@@]2(C)[C@@H](C[C@@H](O)[C@H]3[C@@]4(C)CC[C@@H](O)[C@@H](C)[C@@H]4CC[C@@]32C)/C1=C(\CCC=C(C)C)C(=O)O [Fusidic acid], the Bliss interaction score is -0.11 with B. subtilis 168, 0.026 with S. aureus DSM 20231, 0.0488 with S. aureus Newman and -0.0508 in the test on S. pneumoniae D39V.
The corresponding values for `N#CC(C#N)=NNc1cccc(Cl)c1` [CCCP] + O=C1CN(/N=C/c2ccc([N+](=O)[O-])o2)C(=O)N1 [Nitrofurantoin] are -0.0566, -0.0278, -0.0479 and -0.109.
